Data taken from patent publication US20230251260A1, “METHODS OF DETERMINING CANCER THERAPY” (YISSUM RESEARCH DEVELOPMENT COMPANY OF THE HEBREW …, priority 2020, published 2023).

Key:
BR45 PDX = BR45 PDX in NSG mice treated by brachytherapy, tumor growth; assay type: in vivo, mouse; details: pretreatment prior to brachytherapy RT (12 Gy and 10 Gy)
Text: Mouse models: Syngeneic mouse model: 2.0×10^5 4T1 cells were inoculated subcutaneously on 6-7 weeks old female Balb/c mice. Allogeneic model: BR45 tumors were induced on NSG mice either by injecting 4.0×10^6 cells […] or subcutaneously transplanting xenografts. After reached the desired tumor volume (80-100 mm3), mice were randomly grouped to around 8-10 per cage and treatment were initialized. Tumor sizes were regularly measured with an electronic calliper every two days and their volumes were obtained using the formula V=(W (2)×L)/2. Mice were kept under conventional pathogen-free conditions. All in-vivo experiments were performed with approval of the Hebrew University of Jerusalem IACUC.
Tumor inoculation: 4T1 mouse breast carcinoma mimics stage IV triple negative breast cancer in human. It is highly metastatic to lungs, lymph nodes, liver and bones after implantation in the mammary fat pad of immune-competent Balb/c mice. Primary tumors were harvested after euthanizing female mice using carbon dioxide (CO2) inhalation. Time elapsed from tumor inoculation varied from 2 weeks to 1 month. […]
Drugs were given usually by IP or gavage depending on the drug. […] During this period the tumor volumes were measured regularly to observe the action of the drug. […]

4T1 cells = experiment: Survival assay (methylene blue) of irradiated 4T1 cells; assay type: cell-based, mouse; details: drugs with RT, beginning 2 days prior to RT until 6 days post-RT
Method: Survival Analysis: Cells were seeded at 70% confluency and treated as needed for different timepoints. Cells were washed with PBS and fixed with 4% PFA for 10 min. at R.T. The fixed cells were stained with Methylene Blue (MB) for 1 hour at R.T., washed and air dried overnight. The color was extracted with 0.1M HCl for 1 hour at R.T. Absorbance was read at 630 nm.

Row | SMILES | tumor growth, response to RT (BR45 PDX) | cell survival / sensitization of 4T1 cells to RT (4T1 cells)
1 | C#Cc1cccc(Nc2ncnc3cc(OCCOC)c(OCCOC)cc23)c1 [erlotinib, Erlotinib] | did not improve the results of the treatment | –
2 | C[C@@H](Oc1cc(-c2cnn(C3CCNCC3)c2)cnc1N)c1c(Cl)ccc(F)c1Cl [Crizotinib] | – | significantly less effective in sensitizing the cells to RT
